Measurements reported in US20140331365A1 (priority 2008, published 2014).
“Also recorded” adds a separate entry of the source.

Tests used:
soybean root cells = type: cell-based; details: for stimulation of Avr1b(N)-GFP uptake into soybean roots: after 9 hr
Avr1b(N)-GFP = type: binding, Phytophthora sojae
AvrL567(N)-GFP = type: binding, Melampsora lini
soybean leaf cells = type: cell-based

Molecule: O=P(O)(O)O[C@@H]1C(O)[C@H](OP(=O)(O)O)[C@@H](O)C(O)[C@H]1O (stereo partly drawn) [1,3-IP2, Inositol 1,3 diphosphate]
- inhibition of entry of Avr2-GFP into soybean root cells (soybean root cells): inhibited
- inhibition of entry of AvrLm6-GFP into soybean root cells (soybean root cells): inhibited

Molecule: O=P(O)(O)OC1[C@@H](O)[C@H](O)C(OP(=O)(O)O)[C@H](O)[C@@H]1O (stereo partly drawn) [IP2, Inositol-1,4-diphosphate]
- inhibition of binding of Avr1b(N)-GFP to PI-4-P-containing liposomes (Avr1b(N)-GFP): inhibited binding
- inhibition of binding of AvrL567(N)-GFP to PI-4-P-containing liposomes (AvrL567(N)-GFP): completely block binding
- inhibition of entry of Avr2-GFP into soybean root cells (soybean root cells): inhibited
- inhibition of entry of AvrLm6-GFP into soybean root cells (soybean root cells): inhibited
- inhibition of uptake/entry of Arg9-GFP into soybean root cells (soybean root cells): completely unaffected
- inhibition of uptake/entry of Avr1b(N)-GFP into soybean root cells (soybean root cells): almost completely blocked
- inhibition of uptake/entry of AvrL567(N)-GFP into soybean root cells (soybean root cells): almost completely blocked

Molecule: CCCCCCCC(=O)OC[C@H](COP(=O)(O)OC1[C@H](O)[C@H](O)C(OP(=O)(O)O)[C@H](O)[C@H]1O)OC(=O)CCCCCCC (stereo partly drawn) [di-octanoyl-PI-4-P]
- promotion of uptake of Avr1b(N)-GFP and AvrL567(N)-GFP proteins containing alanine substitutions in the RXLR and dEER motifs (soybean root cells): did not promote the uptake
- stimulation of Arg9-GFP uptake in soybean root cells (soybean root cells): does not stimulate uptake
- stimulation of AvrL567(N)-GFP uptake into soybean roots (soybean root cells): strongly stimulated
- stimulation of Avr1b(N)-GFP uptake into soybean roots (soybean root cells): strong stimulation; also recorded: stimulated

Molecule: AAAA
- ablation (soybean leaf cells): 0

Molecule: Arg9
- Avr1b function / cell re-entry in particle bombardment assay (reduction of GUS-positive blue spots with Rps1b) (soybean leaf cells): could functionally replace the RXLR2 motif

Molecule: phosphatidyl choline [PC]
- stimulation of Avr1b(N)-GFP uptake into soybean roots (soybean root cells): did not stimulate uptake

Molecule: phosphatidyl ethanolamine [PE]
- stimulation of Avr1b(N)-GFP uptake into soybean roots (soybean root cells): did not stimulate uptake

Molecule: phosphatidyl inositol [PI]
- stimulation of Avr1b(N)-GFP uptake into soybean roots (soybean root cells): did not stimulate uptake
